This passage reports melting point results from US6541630B1 (priority 1997, dated 2003).

In general, melting point refers to the temperature, or range, at which the solid turns liquid.

Regarding `O=c1[nH]cnc2cc(Br)sc12` [Compound 8a, 6-Bromo-3,4-dihydrothieno[3,2-d]pyrimidin-4-one], the melting point lay in the range of 238 to 240 °C.

`O=c1[nH]cnc2sc(Br)cc12` [Compound 6g, 6-Bromo-3,4-dihydrothieno[2,3-d]pyrimidine-4-one] gave a melting point of 301 to 304 °C.

Regarding `Nn1cnc2c(Br)csc2c1=O` [Compound 6d, 3-Amino-7-bromo-3,4-dihydrothieno[3,2-d]pyrimidin-4-one], the melting point was in the range of 181 to 183 °C.

`CC(=O)On1cnc2c(Br)csc2c1=O` showed a melting point of 159 to 162 °C.

`Cc1cc2ncn(C)c(=O)c2s1` gave a melting point of 188 to 190 °C.

For the molecule `CC(=O)Nn1cnc2c(Br)csc2c1=O`, the melting point stood at 273 °C.

The molecule `Cc1sc2c(=O)[nH]cnc2c1Br` returned a melting point of 320 to 322 °C.
